Results on seven compounds are retold here after PubChem BioAssay (NCI).

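Where inhibition never reached the appropriate level, the endpoint shown equals the highest concentration tested. Otherwise, values were interpolated linearly from a five-concentration, 48-hour dose response in 96-well plates. Definition used: TGI = concentration required for complete inhibition of growth.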

Some test systems named below: SK-OV-3 ovarian; SK-MEL-2 melanoma; OVCAR-4 ovarian; HCT-116 colon; MDA-N; K-562 leukemia; HOP-92 NSCLC; SK-MEL-28 melanoma; KM12 colon; DU-145 prostate; RXF 393 renal; 786-0 renal; CAKI-1 renal; T-47D breast; MDA-MB-231 breast; SF-539 CNS; NCI-H460 lung; NCI/ADR-RES ovarian; MDA-MB-435; RPMI-8226 leukemia.
What all share (test): inhibition of tumour cell growth, NCI panel, 48 h

Take `C[n+]1c2ccccc2n2c3ccccc3c(NCCc3ccccn3)c(C#N)c21`: the TGI in the assay with SK-OV-3 ovarian was 17.8 µM; with SK-MEL-2 melanoma it was 7.73 µM; in the assay on OVCAR-4 ovarian, 5.93 µM; in the assay on HCT-116 colon it was 11.8 µM; in the assay with MDA-N it was 4.87 µM; in the assay with K-562 leukemia it was greater than 100 µM. Also, the TGI with HOP-92 NSCLC is greater than 100 µM; with SK-MEL-28 melanoma, 5.51 µM; in the assay on KM12 colon it was 29 µM; with DU-145 prostate, 7.01 µM; with RXF 393 renal, 4.62 µM; in the assay on 786-0 renal it was 7.58 µM. Further, the TGI in the assay with CAKI-1 renal was 6.68 µM; in the assay on T-47D breast, 13.7 µM; in the assay on MDA-MB-231 breast it was 6.83 µM; with SF-539 CNS it was 12.6 µM; in the assay on NCI-H460 lung, 3.61 µM; in the assay on NCI/ADR-RES ovarian it was greater than 60 µM. Also, the TGI in the assay with MDA-MB-435 is 4 µM.
With `COC(=O)[C@@]1(Cc2ccc(O)cc2)C[C@@H]2Cc3ccccc3N2N1`, the TGI in the assay on SK-OV-3 ovarian was greater than 100 µM; in the assay on SK-MEL-2 melanoma, 92.8 µM; with OVCAR-4 ovarian, greater than 100 µM; in the assay on HCT-116 colon, greater than 100 µM; in the assay on MDA-N, greater than 100 µM; in the assay on HOP-92 NSCLC it was greater than 100 µM. Also, the TGI in the assay with SK-MEL-28 melanoma, in the assay on KM12 colon, in the assay with DU-145 prostate, in the assay with 786-0 renal, in the assay with CAKI-1 renal and with RPMI-8226 leukemia was greater than 100 µM each time. Besides, the TGI in the assay on T-47D breast, in the assay with MDA-MB-231 breast, in the assay on SF-539 CNS, with NCI/ADR-RES ovarian and with MDA-MB-435 was greater than 100 µM throughout.
Take `CCOC(=O)/C(N=Nc1ccc(-n2c(C)nc3ccc(Br)cc3c2=O)cc1)=C(/C)O`: the TGI in the assay with SK-OV-3 ovarian, in the assay with SK-MEL-2 melanoma, with HCT-116 colon, in the assay on MDA-N, in the assay with K-562 leukemia and in the assay on HOP-92 NSCLC was greater than 100 µM in each case. The TGI in the assay on SK-MEL-28 melanoma, with KM12 colon, with DU-145 prostate, in the assay with 786-0 renal, with CAKI-1 renal and in the assay with RPMI-8226 leukemia was greater than 100 µM each time. The TGI in the assay with T-47D breast, in the assay on MDA-MB-231 breast, in the assay on SF-539 CNS, in the assay with NCI-H460 lung, with NCI/ADR-RES ovarian and with MDA-MB-435 was greater than 100 µM in each case.
As to `OC(c1cc2ccccc2[nH]1)C1(c2cccnc2)SCCCS1` (stereo not drawn), the TGI with SK-OV-3 ovarian, in the assay with SK-MEL-2 melanoma, in the assay on OVCAR-4 ovarian, with HCT-116 colon, with MDA-N and with K-562 leukemia was greater than 100 µM throughout. In addition, the TGI is greater than 100 µM in the assay with HOP-92 NSCLC; greater than 100 µM in the assay with SK-MEL-28 melanoma; 82 µM with KM12 colon; greater than 100 µM with DU-145 prostate; greater than 100 µM with RXF 393 renal; greater than 100 µM in the assay on 786-0 renal. Besides, the TGI in the assay on CAKI-1 renal, in the assay with T-47D breast, in the assay on MDA-MB-231 breast, in the assay with NCI-H460 lung, in the assay on NCI/ADR-RES ovarian and in the assay on MDA-MB-435 was greater than 100 µM in each case.
As for `CCCCc1ccc(-n2sc3ncc([N+](=O)[O-])cc3c2=O)cc1`, the TGI in the assay on SK-OV-3 ovarian was greater than 100 µM; with SK-MEL-2 melanoma, 7.43 µM; in the assay on OVCAR-4 ovarian it was 35.2 µM; with HCT-116 colon, 21 µM; with MDA-N, 28 µM; in the assay on SK-MEL-28 melanoma, 50.7 µM. The TGI with KM12 colon was 25.4 µM; in the assay on DU-145 prostate, 57.9 µM; in the assay with 786-0 renal, 28.2 µM; in the assay with CAKI-1 renal, 26.2 µM; in the assay on RPMI-8226 leukemia, 32.5 µM; in the assay on T-47D breast it was 25.9 µM. For the same compound, the TGI with MDA-MB-231 breast was 23.5 µM; in the assay with SF-539 CNS, 39.7 µM; with NCI-H460 lung, 25.3 µM; in the assay with NCI/ADR-RES ovarian, 34.4 µM; in the assay with MDA-MB-435 it was 52.3 µM.
`CCOC(=O)C1C(c2ccc(O)c(OC)c2)c2c([nH][nH]c2=O)CC1(C)O` (stereo not drawn): the TGI in the assay on SK-MEL-2 melanoma, in the assay on OVCAR-4 ovarian, in the assay with HCT-116 colon, in the assay with MDA-N, in the assay on HOP-92 NSCLC and with SK-MEL-28 melanoma was greater than 100 µM throughout. In addition, the TGI with KM12 colon, with DU-145 prostate, with 786-0 renal, in the assay on CAKI-1 renal, with RPMI-8226 leukemia and in the assay with T-47D breast was greater than 100 µM throughout. The TGI in the assay on MDA-MB-231 breast, with SF-539 CNS, in the assay with NCI/ADR-RES ovarian and in the assay on MDA-MB-435 was greater than 100 µM throughout.
In the case of `COC(=O)C(Cc1ccccc1)NP(=O)(O)OCC1OC(n2cc(I)c(=O)[nH]c2=O)CC1O` (stereo not drawn), the TGI with SK-OV-3 ovarian, in the assay on OVCAR-4 ovarian, in the assay with HCT-116 colon, with MDA-N, with K-562 leukemia and in the assay with HOP-92 NSCLC was greater than 100 µM in each case. The TGI with SK-MEL-28 melanoma, in the assay on KM12 colon, in the assay on DU-145 prostate, in the assay on 786-0 renal, in the assay with CAKI-1 renal and with RPMI-8226 leukemia was greater than 100 µM each time. Besides, the TGI in the assay on T-47D breast, in the assay on MDA-MB-231 breast, with SF-539 CNS, in the assay with NCI-H460 lung, in the assay on NCI/ADR-RES ovarian and with MDA-MB-435 was greater than 100 µM in each case.
